How the values were obtained:
[1] = test system: Polistes dominulus worker antennae; assay: GC-EAD of cherry branch aeration samples
Procedure: Lapin cherry branches with severely damaged cherries and leaves and undamaged or slightly damaged branches were collected from a cherry orchard at Creston, Canada, on Jul. 29, 2009, and were transported to the Sterling International, Inc. lab (Spokane, Wash.) on the same day and kept at 4° C. before aerations. Headspace volatiles from the cherry branches (damaged or undamaged) were sampled by a battery operated pump and a high density polyacetate oven bag (48.2×59.6 cm Reynolds® Oven Bag; Richmond, Va., USA) enclosure with one activated charcoal filter tube in the air inlet, on Jul. 30, 2009. The volatiles in the enclosure were trapped on one Porapak Q tube (50/80 mesh; 30 mg in Teflon tube: 3 mm×35 mm) for 2.5 hr (airflow 300 ml/min) and extracted with 1 ml redistilled pentane. Aeration samples of the cherry branches (damaged or undamaged/slightly damaged) were injected (3 μl) splitless into a Varian CP-3800 GC equipped with a polar column (HP-INNOWax; 30 m×0.53 mm×1.0 μm film thickness; […] Helium was used as the carrier gas, and the injector and detector temperatures were 250° C. and 300° C., respectively. Column temperature was 50° C. for 1 min, rising to 240° C. at 10° C./min, and then held for 10 min. The outlet for the EAD was held in a humidified air stream flowing at 0.5 m/sec over the antennal preparation. EAD recordings were made using silver wire-glass capillary electrodes filled with Beadle-Ephrussi Ringer on freshly cut antennae. The antennal signals were stored and analyzed on a PC equipped with a serial IDAC interface box and the program EAD ver. 2.5 (Syntech, Hilversum, The Netherlands). […] (See FIG. 2.) The same chemicals were also tested on beneficial insect antennae from Chrysopa oculata, Myrmeleon crudelis, Podisus maculiventris, and Hippodarnia convergens. (See […] active peaks in the aeration samples were identified by GC-MS on an HP 6890 GC series coupled with an HP 5973 Mass Selective Detector using the same type of GC column and conditions as described above. Compounds were identified by comparison of retention times with those of authentic standards and with mass spectra of standards.

[2] = test system: P. dominulus workers antennae; assay: GC-EAD of synthetic mixture of known HIPVs; design: species or system Polistes dominulus; conditions: 100 ng/μl each in hexane
Procedure: (§1) Aeration samples of the cherry branches (damaged or undamaged/slightly damaged) were injected (3 μl) splitless into a Varian CP-3800 GC equipped with a polar column (HP-INNOWax; 30 m×0.53 mm×1.0 μm film thickness; Agilent Technologies, Wilmington, Del., USA) and a 1:1 effluent splitter that allowed simultaneous flame ionization detection (FID) and electroantennographic detection (EAD) of the European paper wasp (Polistes dominulus) worker antennae to the separated volatile compounds. Helium was used as the carrier gas, and the injector and detector temperatures were 250° C. and 300° C., respectively. Column temperature was 50° C. for 1 min, rising to 240° C. at 10° C./min, and then held for 10 min. The outlet for the EAD was held in a humidified air stream flowing at 0.5 m/sec over the antennal preparation. EAD recordings were made using silver wire-glass capillary electrodes filled with Beadle-Ephrussi Ringer on freshly cut antennae. The antennal signals were stored and analyzed on a PC equipped with a serial IDAC interface box and the program EAD ver. 2.5 (Syntech, Hilversum, The Netherlands). In addition, GC-EAD responses to a synthetic mixture (100 ng/μl each) containing nine known HIPVs including cis-3-hexen-1-ol, cis-3-hexenyl acetate, trans-β-ocimene, (E)-4,8-dimethyl-1,3,7-nonatriene, linalool, methyl salicylate, geranyl acetate, trans-β-caryophyllene and trans-β-farnesene were tested on the P. dominulus workers. (See FIG. 2.) The same chemicals were also tested on beneficial insect antennae from Chrysopa oculata, Myrmeleon crudelis, Podisus maculiventris, and Hippodarnia convergens. (See FIG. 6.) Antennally active peaks in the aeration samples were identified by GC-MS on an HP 6890 GC series coupled with an HP 5973 Mass Selective Detector using the same type of GC column and conditions as described above. Compounds were identified by comparison of retention times with those of authentic standards and with mass spectra of standards.

V. pensylvanica = assay: Field trapping Experiment 1, Rescue W•H•Y traps; type: in vivo, Vespula pensylvanica; conditions: Exp 1; HIPV added to WHY attractant in the top chamber, or WHY alone
Procedure: (§2) Three field trapping experiments were carried out during late July to early August 2009, in residential and woody areas around Spokane, Wash., USA, using the newly marketed Rescue® W•H•Y traps (www.rescue.com). As used herein, the W•H•Y trap is a trap in accordance with the description of United States Patent Application Publication No. 2009/0151228. The W•H•Y trap has a top chamber and a bottom chamber. The top chamber is baited with two attractants—one of which is a solid contained in a vial (2-methyl-1-butanol) and the other a liquid mixed with water (acetic acid), herein referred to as the W•H•Y top attractant. The bottom chamber is baited with a liquid attractant (heptyl butyrate) poured onto a cotton pad, herein referred to as the W•H•Y bottom attractant. Separation of the top and bottom attractants (otherwise antagonistic to each other when released from the same chamber) in two chambers was a design feature of this trap and creates two focal attraction sources from one trap for different species of wasps, hornets, and yellowjackets. Traps were hung 1.5-2.0 m above the ground on either the fence or tree branches ca. 5 m apart within each trap line. For each trapping experiment, six sets of traps were deployed with their initial trap positions within each set being randomized. To minimize positional effects and obtain more replications, wasp collections and trap re-randomization were carried out when ≧10-20 wasps were caught in the best trap. Each replicate lasted several days depending on wasp flight activity. Captured wasps were removed from the traps and kept in the zip-bags before taking back to the laboratory for recording of the species, gender status, and catch.
(§3) Experiment 3 (Aug. 5-13, 2009) was conducted to determine the potential behavioral activity of different doses of (E)-4,8-dimethyl-1,3,7-nonatriene alone. The individual (or different doses) HIPVs were loaded into either polyethylene bags or centrifuge tube type of dispensers, and released from the top of the W•H•Y trap chamber. W•H•Y trap attractants (both top and bottom or top only) alone and water (top chamber only) were included in the test as positive and blank controls, respectively. The dispenser types, loading and release rates of the tested semiochemicals are described in Tables 1, 2 and 3.
(§4) Trap catch data were converted to proportion (P) of total captured wasps within each replicate. Data were then transformed by arcsin√P to meet the assumptions of normality and homogeneity of variances for ANOVA. Means were compared by ANOVA followed by the Ryan-Einot-Gabriel-Welsh (REGW) multiple Q test (SPSS 16.0 for Windows) at α=0.05.

D. arenaria = assay: Field trapping Experiment 1, Rescue W•H•Y traps; type: in vivo, Dolichovespula arenaria; conditions: Exp 1; HIPV added to WHY attractant in the top chamber, or WHY alone
Procedure: as §2
(§5) Experiment 1 (Jul. 22-30, 2009) tested ten synthetic HIPV candidates [(E)-2-hexenal, (Z)-3-hexen-1-ol, (Z)-3-hexenyl acetate, cis-ocimene, linalool, methyl salicylate, geranyl acetate, trans-β-caryophyllene, trans-β-farnesene and (E)-4,8-dimethyl-1,3,7-nonatriene], including several paper wasp EAD-active compounds (see FIG. 2 for details), to determine their potential synergistic effect on the Rescue® W•H•Y trap attractants to paper wasps, yellowjackets, and hornets. Experiment 2 (Aug. 5-13, 2009) tested behavioral responses of the paper wasps and yellowjackets to the Rescue® W•H•Y trap attractants (top attractants only) and its combination with (E)-4,8-dimethyl-1,3,7-nonatriene, one of the EAD-active and behaviorally significant HIPVs, in a dose-response fashion. Experiment 3 (Aug. 5-13, 2009) was conducted to determine the potential behavioral activity of different doses of (E)-4,8-dimethyl-1,3,7-nonatriene alone. The individual (or different doses) HIPVs were loaded into either polyethylene bags or centrifuge tube type of dispensers, and released from the top of the W•H•Y trap chamber. W•H•Y trap attractants (both top and bottom or top only) alone and water (top chamber only) were included in the test as positive and blank controls, respectively. The dispenser types, loading and release rates of the tested semiochemicals are described in Tables 1, 2 and 3.
as §4

V. acadica = assay: Field trapping Experiment 1, Rescue W•H•Y traps; type: in vivo, Vespula acadica; conditions: Exp 1; HIPV added to WHY attractant in the top chamber, or WHY alone
Procedure: as §2, §3, §4

V. vulgaris = assay: Field trapping Experiment 1, Rescue W•H•Y traps; type: in vivo, Vespula vulgaris; conditions: Exp 1; HIPV added to WHY attractant in the top chamber, or WHY alone
Procedure: as §2, §3, §4

P. aurifer = assay: Field trapping Experiment 1, Rescue W•H•Y traps; type: in vivo, Polistes aurifer; conditions: Exp 1; HIPV added to WHY attractant in the top chamber, or WHY alone
Procedure: as §2, §3, §4

P. dominulus = assay: Field trapping Experiment 1, Rescue W•H•Y traps; type: in vivo, Polistes dominulus; conditions: Exp 1; HIPV added to WHY attractant in the top chamber, or WHY alone
Procedure: as §2, §3, §4

V. atropilosa = type: in vivo, Vespula atropilosa; conditions: Exp 1; HIPV added to WHY attractant in the top chamber, or WHY alone
D. maculata = assay: Field trapping Experiment 1, Rescue W•H•Y traps; type: in vivo, Dolichovespula maculata; conditions: Exp 1; HIPV added to WHY attractant in the top chamber, or WHY alone
Procedure: as §2, §5, §4

V. consobrina = type: in vivo, Vespula consobrina; conditions: Exp 1; HIPV added to WHY attractant in the top chamber, or WHY alone
Procedure: as §2, with “catch. […]” for “catch.”
as §4

yellowjackets = assay: Field trapping Experiment 1, top chamber catches; type: in vivo; conditions: Exp 1; HIPV combined with W•H•Y attractant (acetic acid and 2-methyl-1-butanol) in the top chamber
Procedure: as §2
(§6) Experiment 3 (Aug. 5-13, 2009) was conducted to determine the potential behavioral activity of different doses of (E)-4,8-dimethyl-1,3,7-nonatriene alone. The individual (or different doses) HIPVs were loaded into either polyethylene bags or centrifuge tube type of dispensers, and released from the top of the W•H•Y trap chamber. […]

[3] = test system: Chrysopa oculata antennae; assay: GC-EAD of synthetic HIPVs on beneficial insect antennae; conditions: FIG. 6
Procedure: as §1

[4] = test system: Hippodarnia convergens antennae; assay: as above; conditions: FIG. 6
Procedure: as §1

[5] = test system: Podisus maculiventris antennae; assay: as above; conditions: FIG. 6
Procedure: as §1

[6] = test system: Myrmeleon crudelis antennae; assay: as above; conditions: FIG. 6
Procedure: as §1

[7] = test system: paper wasps and yellowjackets; assay: Field trapping bioassays, synergism with AA/2MB (summary); type: in vivo; conditions: at the doses tested
Procedure: as §2, §6

[8] = aeration of undamaged or slightly damaged cherry branches
[9] = aeration of severely damaged cherry branches, at current release rates

Row | Compound | EAD response of worker antennae [2] | Total Yellowjacket Catches V. pensylvanica (V. pensylvanica) | Total Yellowjacket Catches D. arenaria (D. arenaria) | Total Yellowjacket Catches V. acadica (V. acadica) | Total Yellowjacket Catches V. vulgaris (V. vulgaris) | Total Paper Wasps P. aurifer (P. aurifer) | Total Paper Wasps P. dominulus (P. dominulus) | Total Yellowjacket Catches V. atropilosa (V. atropilosa) | Total Yellowjacket Catches D. maculata (D. maculata) | Total Yellowjacket Catches V. consobrina (V. consobrina) | EAD response of worker antennae [1, 9] | other results
1 | CCC/C=C/COC(C)=O [(E)-2-hexenyl acetate] | – | – | – | – | – | – | – | – | – | – | – | EAD response of worker antennae [1, 8]: strongly responded
2 | C=C/C=C(/C)CCC=C(C)C [(Z)-4,8-dimethyl-1,3,7-nonatriene] | responded consistently | – | – | – | – | – | – | – | – | – | – | –
3 | CCC/C=C/C=O [E-2-Hexenal, (E)-2-hexenal] | – | 423 | 4 | 0 | 44 | 8 | 19 | 3 | 2 | 0 | – | –
4 | CC(=O)OC/C=C(\C)CCC=C(C)C [Geranyl Acetate, geranyl acetate] | responded consistently | 128 | 2 | 0 | 18 | 4 | 13 | 2 | 1 | 1 | – | effect on trap catches of yellowjackets in the top chambers (yellowjackets): inhibitory effect
5 | C=CC(C)(O)CCC=C(C)C (stereo not drawn) [Linalool, linalool] | responded consistently | 291 | 0 | 0 | 32 | 13 | 46 | 0 | 1 | 0 | – | –
6 | CCCCCCCCC=O [nonanal] | – | – | – | – | – | – | – | – | – | – | repeatable antennal response | EAD response of worker antennae [1, 8]: strongly responded
7 | Cc1ccc(C(C)C)cc1 [p-cymene] | – | – | – | – | – | – | – | – | – | – | did not elicit significant EAD-responses | –
8 | C=C/C(C)=C/C/C=C(\C)CCC=C(C)C [α-farnesene] | – | – | – | – | – | – | – | – | – | – | did not elicit significant EAD-responses | –
9 | C=C/C(C)=C/CC=C(C)C [β-ocimene, trans-β-ocimene] | responded consistently | – | – | – | – | – | – | – | – | – | – | EAD-response [3]: strong EAD-responses; EAD-response [4]: strong EAD-responses; EAD-response [5]: strong EAD-responses; EAD-response [6]: strong EAD-responses; synergism of attraction to mixture of acetic acid and 2-methyl-1-butanol [7]: significantly synergize
